{"source": "BindingDB's records for doi:10.7270/Q2D798VP", "about": "(Broad Institute, 2009)", "note": "Counter-ions that a name gives are not always drawn."}
{"molecular_target": "T1, Zinc finger protein mex-5 (Caenorhabditis elegans, UniProt Q9XUB2)", "T1 sequence (Q9XUB2 whole entry)": "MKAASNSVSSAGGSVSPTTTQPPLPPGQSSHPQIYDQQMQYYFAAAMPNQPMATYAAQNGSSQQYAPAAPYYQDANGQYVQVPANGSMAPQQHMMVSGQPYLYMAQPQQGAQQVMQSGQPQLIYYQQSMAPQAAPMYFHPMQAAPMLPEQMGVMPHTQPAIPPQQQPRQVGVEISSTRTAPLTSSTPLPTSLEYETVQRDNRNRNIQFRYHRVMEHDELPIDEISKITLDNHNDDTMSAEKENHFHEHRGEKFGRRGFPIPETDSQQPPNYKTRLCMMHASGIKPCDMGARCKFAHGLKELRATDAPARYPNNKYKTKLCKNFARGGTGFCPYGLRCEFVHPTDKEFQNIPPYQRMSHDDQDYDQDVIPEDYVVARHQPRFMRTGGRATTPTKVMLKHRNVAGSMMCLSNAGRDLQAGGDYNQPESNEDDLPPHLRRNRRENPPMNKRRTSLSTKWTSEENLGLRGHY", "experiment": "MEX-5/TCR-2 RNA interaction inhibitors, dose response, biochemical, C. elegans, fluorescence polarization (AID 1960)", "units": {"EC50": "µM"}}
{"smiles": "C/N=c1\\ccc2nc3ccccc3n(C)c-2c1", "note": "[N,10-dimethyl-2-phenazin-10-iumamine;perchlorate]", "EC50": 14.8}
{"smiles": "Nc1c(-c2nc3ccccc3[nH]2)c(O)cn1-c1ccc(CC(=O)O)cc1", "note": "[MLS000565528]", "EC50": 1.59}
{"smiles": "C=CCc1cccc(C=Nn2cnnc2)c1O", "note": "[(6E)-2-allyl-6-[(1,2,4-triazol-4-ylamino)methylene]cyclohexa-2,4-dien-1-one]", "EC50": 238}
{"smiles": "Fc1ccc(C2=Nc3ncnn3C(c3ccco3)C2)cc1", "note": "(stereo not given) [5-(4-fluorophenyl)-7-(2-furanyl)-1,7-dihydro-[1,2,4]triazolo[1,5-a]pyrimidine]", "EC50": 12.8}
{"smiles": "c1ccc(CN=Nc2nc3ccccc3[nH]2)nc1", "EC50": 41.7}
{"smiles": "C[C@@H]1O[C@@H](O[C@@H]2[C@@H](O)[C@H](OCCc3ccc(O)c(O)c3)O[C@H](CO)[C@H]2OC(=O)/C=C/c2ccc(O)c(O)c2)[C@H](O)[C@H](O)[C@H]1O", "note": "[((2R,3R,4R,5R,6R)-6-(3,4-dihydroxyphenethoxy)-5-hydroxy-2-(hydroxymethyl)-4-((2S,3R,4R,5R,6S)-3,4,5-trihydroxy-6-methyltetrahydro-2H-pyran-2-yloxy)tetrahydro-2H-pyran-3-yl) 3-(3,4-dihydroxyphenyl)acrylate]", "EC50": 9.83}
{"smiles": "Cc1n[nH]c(C)c1Sc1ccccc1/N=C/C1C=C(Cl)C=C([N+](=O)[O-])C1=O", "note": "(stereo not given) [(6E)-4-chloranyl-6-[[[2-[(3,5-dimethyl-1H-pyrazol-4-yl)sulfanyl]phenyl]amino]methylidene]-2-nitro-cyclohexa-2,4-dien-1-one]", "EC50": 7.57}
{"smiles": "O=C1N=C(O)C(C2=c3cc([N+](=O)[O-])ccc3=NC2=O)S1", "note": "(stereo not given) [MLS001163276]", "EC50": 21.5}
{"smiles": "CN1CCC2=C(C#N)C(=N)C(C#N)(C#N)C(c3ccncc3)C2C1", "note": "(stereo not given) [6-amino-2-methyl-8-(4-pyridyl)-1,3,8,8a-tetrahydroisoquinoline-5,7,7-tricarbonitrile]", "EC50": 7.73}
{"smiles": "COc1ccc(C2C3=C(CCCC3=O)OC(=N)C2C#N)c(OC)c1OC", "note": "(stereo not given) [2-Amino-5-oxo-4-(2,3,4-trimethoxy-phenyl)-5,6,7,8-tetrahydro-4H-chromene-3-carbonitrile]", "EC50": "> 300"}
{"smiles": "Cc1cc(C=NNC(=O)c2cccc(N(C)C)c2)c(C)n1-c1cc(C(=O)O)cc(C(=O)O)c1", "note": "[5-[3-((E)-{[3-(dimethylamino)benzoyl]hydrazono}methyl)-2,5-dimethyl-1H-pyrrol-1-yl]isophthalic acid]", "EC50": 143}
{"smiles": "N#CC1C(=N)Oc2ccc3ccc(O)cc3c2C1c1ccsc1", "note": "(stereo not given) [3-amino-9-hydroxy-1-(3-thienyl)-1H-benzo[f]chromene-2-carbonitrile]", "EC50": 11}
{"smiles": "Cc1nnc(SC(C(=O)O)=C2C(=O)Nc3ccccc32)[nH]1", "note": "[(5-Methyl-4H-[1,2,4]triazol-3-ylsulfanyl)-[2-oxo-1,2-dihydro-indol-(3E)-ylidene]-acetic acid]", "EC50": 25.2}
{"smiles": "CCCCN1C(=O)/C(=C2/Sc3ccccc3N2C)SC1=Nc1nnc[nH]1", "note": "[SMR000282142]", "EC50": 39.1}
{"smiles": "C=c1[nH]n(-c2cccc(C(=O)O)c2)c(=O)c1=CC=Cc1ccco1", "note": "[SMR000113614]", "EC50": 23.7}
{"smiles": "COc1ccc(C=C2CCCC(C(=O)C(F)(F)F)C2=O)cc1OC", "note": "(stereo not given) [(2E,6Z)-2-(3,4-dimethoxybenzylidene)-6-(2,2,2-trifluoro-1-hydroxyethylidene)cyclohexanone]", "EC50": 254}
{"smiles": "C/N=C1/S/C(=C\\c2ccc(N3CCCC3)c(F)c2)C(=O)N1C", "note": "[(5Z)-5-(3-fluoro-4-pyrrolidino-benzylidene)-3-methyl-2-methylimino-thiazolidin-4-one]", "EC50": 8.89}
{"smiles": "Cc1ccc(C2C(C(=O)c3ccco3)C(=O)C(=O)N2c2nnc(C)s2)cc1", "note": "(stereo not given) [3-(furan-2-carbonyl)-4-hydroxy-2-(4-methylphenyl)-1-(5-methyl-1,3,4-thiadiazol-2-yl)-2H-pyrrol-5-one]", "EC50": "> 300"}
{"smiles": "Cc1[nH]n(C(N)=S)c(=O)c1N=Nc1cccc(C(=O)O)c1", "note": "[3-[(1-carbamothioyl-3-methyl-5-oxo-4H-pyrazol-4-yl)diazenyl]benzoic acid]", "EC50": 22.7}
{"smiles": "N#CC1C(=N)OC2=C(C(=O)CC(c3ccccc3)C2)C1c1ccc2c(c1)OCO2", "note": "(stereo not given)", "EC50": "> 300"}
{"smiles": "COc1ccc(N2C(=O)C(=Nc3ccccc3O)C(Cl)C2=O)cc1", "note": "(stereo not given) [3-Chloro-4-(2-hydroxy-phenylamino)-1-(4-methoxy-phenyl)-pyrrole-2,5-dione]", "EC50": 24.5}
{"smiles": "O=NCc1cccn1-c1cccc(C(=O)O)c1", "note": "[3-[2-(hydroximinomethyl)pyrrol-1-yl]benzoic acid]", "EC50": "> 300"}
{"smiles": "N#CC1C(=N)Oc2cc(O)c(Cl)cc2C1c1ccccc1F", "note": "(stereo not given) [2-Amino-6-chloro-4-(2-fluoro-phenyl)-7-hydroxy-4H-chromene-3-carbonitrile]", "EC50": "> 300"}
{"smiles": "C=CCOc1cccc(C2C(C(=O)c3ccc(C)o3)C(=O)C(=O)N2c2nnc(C)s2)c1", "note": "(stereo not given) [3-(5-methylfuran-2-yl)carbonyl-1-(5-methyl-1,3,4-thiadiazol-2-yl)-4-oxidanyl-2-(3-prop-2-enoxyphenyl)-2H-pyrrol-5-one]", "EC50": 210}
{"smiles": "CSc1ccc(C2C(C(=O)c3ccco3)C(=O)C(=O)N2c2nnc(SC)s2)cc1", "note": "(stereo not given) [3-(furan-2-carbonyl)-4-hydroxy-2-(4-methylsulfanylphenyl)-1-(5-methylsulfanyl-1,3,4-thiadiazol-2-yl)-2H-pyrrol-5-one]", "EC50": 16.4}
{"smiles": "O=C(CC(=O)c1ccccc1)C(=O)NNC(=O)c1ccccc1[N+](=O)[O-]", "note": "[2-Nitro-benzoic acid N'-(2-hydroxy-4-oxo-4-phenyl-but-2-enoyl)-hydrazide]", "EC50": 1.11}
{"smiles": "Cc1cc(C(=O)NN=CC2C=C(Cl)C=C([N+](=O)[O-])C2=O)[nH]n1", "note": "(stereo not given) [SMR000414694]", "EC50": "> 300"}
{"smiles": "COc1[nH]c(N=Cc2ccccc2)c(C#N)c1C#N", "note": "[2-methoxy-5-[(phenylmethylene)amino]-1H-pyrrole-3,4-dicarbonitrile]", "EC50": 5.63}
{"smiles": "O=C1NC(=O)N(CCc2ccccc2)C(=O)C1=CNNC(=O)c1ccncc1", "note": "[N'-[(E)-[2,4,6-trioxo-1-(2-phenylethyl)-1,3-diazinan-5-ylidene]methyl]-4-pyridinecarbohydrazide]", "EC50": "> 300"}
{"smiles": "O=C1N=c2ccc(Br)cc2=C1NNc1nnn[nH]1", "note": "[5-bromanyl-3-[2-(2H-1,2,3,4-tetrazol-5-yl)hydrazinyl]indol-2-one]", "EC50": 5.18}
{"smiles": "COc1ccc(C(=O)CC=Nc2ccc([N+](=O)[O-])cc2C)cc1OC", "note": "[(E)-1-(3,4-dimethoxyphenyl)-3-(2-methyl-4-nitro-anilino)prop-2-en-1-one]", "EC50": 150}
{"smiles": "CCOc1ccc(N=C(C(=C(Cl)C(Cl)Cl)[N+](=O)[O-])n2cncn2)cc1", "note": "[MLS000519210]", "EC50": 45.4}
{"smiles": "Cc1c(C(=O)NN=Cc2ccco2)[nH][nH]c1=O", "EC50": "> 300"}
{"smiles": "COc1cccc(C2C3=C(CC(c4ccco4)CC3=O)OC(=N)C2C#N)c1OCc1ccc(F)cc1", "note": "(stereo not given) [SMR000021029]", "EC50": "> 300"}
{"smiles": "COc1ccc(C=C2CCCC(C(=O)C(F)(F)F)C2=O)cc1", "note": "(stereo not given) [SMR000142699]", "EC50": 41.4}
{"smiles": "O=C1c2cccc3cccc(c23)C(=O)C1[N+](=O)[O-]", "note": "[2-nitro-3-oxidanyl-phenalen-1-one]", "EC50": 9.23}
{"smiles": "CN(C)c1ccc(N=Cc2nc(-c3ccccc3)oc2O)cc1", "note": "[SMR000009577]", "EC50": 5.22}
{"smiles": "C[C@H]1c2cccc(O)c2C(=O)C2C(=O)[C@]3(O)C(=O)C(C(N)=O)C(=O)[C@@H](N(C)C)C3C(O)C21", "note": "(stereo partly drawn) [(2Z,4S,5S,6R,12aS)-2-[amino(hydroxy)methylidene]-4-(dimethylamino)-5,10,11,12a-tetrahydroxy-6-methyl-4a,5,5a,6-tetrahydro-4H-tetracene-1,3,12-trione;ethanol;hydrate;hydrochloride]", "EC50": 45.3}
{"smiles": "C[C@H]1c2cccc(O)c2C(=O)C2C(=O)[C@]3(O)C(=O)C(C(N)=O)C(=O)[C@@H](N(C)C)[C@@H]3[C@@H](O)[C@@H]21", "note": "(stereo not given in full)", "EC50": 37.9}
{"smiles": "Cn1cc(C=C2C(=O)NC(=O)N(c3ccccc3)C2=O)c2ccccc21", "note": "[SMR000559087]", "EC50": 4.34}
{"smiles": "Cc1ccc(Cl)c2c1NC(=O)/C2=C1/NC(=S)NC1=O", "EC50": 0.294}
{"smiles": "COC(=O)c1ccc(-n2c(C)cc(CN=Nc3nc(C)cc(=O)[nH]3)c2C)cc1", "note": "[SMR000364461]", "EC50": "> 300"}
{"smiles": "CC(C)(C)OC(=O)N1CCC2=C(C#N)C(=N)C(C#N)(C#N)[C@H](c3cccnc3)[C@H]2C1", "note": "[(8S,8aR)-6-amino-5,7,7-tricyano-8-(3-pyridinyl)-1,3,8,8a-tetrahydroisoquinoline-2-carboxylic acid tert-butyl ester]", "EC50": 54}
{"smiles": "O=C1CCCC2=Nc3cc(Cl)ccc3SC12", "note": "(stereo not given) [MLS000333002]", "EC50": 8.9}
{"smiles": "O=NC1CC2(CC(N=O)C1N=O)OCCO2", "note": "(stereo not given) [9-(hydroxyamino)-8-nitroso-1,4-dioxaspiro[4.5]dec-8-en-7-one oxime]", "EC50": 13}
{"smiles": "O=C1c2cccc([N+](=O)[O-])c2C(=O)N1n1c(O)csc1=S", "note": "[2-(4-keto-2-thioxo-thiazolidin-3-yl)-4-nitro-isoindoline-1,3-quinone]", "EC50": 24.8}
{"smiles": "O=C(O)c1ccc(NN=CC2=C(N3CCOCC3)C(=Cc3ccccc3)CC2)cc1", "note": "[4-[2-[[(3Z)-2-(4-morpholinyl)-3-(phenylmethylene)-1-cyclopentenyl]methylidene]hydrazinyl]benzoic acid]", "EC50": 109}
{"smiles": "C=CCN1C(=O)NC(=O)C(=CCC=Nc2ccccc2)C1=O", "note": "[(5Z)-5-[(E)-3-phenylazanylprop-2-enylidene]-1-prop-2-enyl-1,3-diazinane-2,4,6-trione]", "EC50": "> 300"}
{"smiles": "COc1ccc(C2C3=C(CC(C)(C)CC3=O)OC(=N)C2C#N)c(OC)c1OC", "note": "(stereo not given) [2-amino-5-keto-7,7-dimethyl-4-(2,3,4-trimethoxyphenyl)-6,8-dihydro-4H-chromene-3-carbonitrile]", "EC50": "> 300"}
{"smiles": "Cc1c(NC=C2C(=O)N(C)C(=O)c3ccccc32)c(=O)n(-c2ccccc2)n1C", "note": "[(4E)-4-[[(1,5-dimethyl-3-oxo-2-phenyl-4-pyrazolyl)amino]methylidene]-2-methylisoquinoline-1,3-dione]", "EC50": "> 300"}
